The term IC50 denotes the concentration that inhibits the measured activity by half.

For the assay, the target named is KCNT1 (KNa1.1, Slack) (Homo sapiens (Human), UniProt Q5JUK3). Briefly: KCNT1-WT-Basal - Patch Clamp Assay. Format: cell-based. Conditions: tetracycline inducible HEK-TREX cell line; SyncroPatch 384PE automated patch clamp; step to 0 mV; room temperature. The procedure: Inhibition of KCNT1 (KNa1.1, Slack) was evaluated using a tetracycline inducible cell line (HEK-TREX). Currents were recorded using the SyncroPatch 384PE automated, patch clamp system. Pulse generation and data collection were performed with PatchController384 V1.3.0 and DataController384 V1.2.1 (Nanion Technologies). The access resistance and apparent membrane capacitance were estimated using built-in protocols. Current were recorded in perforated patch mode (10 µM escin) from a population of cells. The cells were lifted, triturated, and resuspended at 800,000 cells/ml. The cells were allowed to recover in the cell hotel prior to experimentation. Currents were recorded at room temperature. The external solution contained the following (in mM): NaCl 105, NMDG 40, KC1 4, MgC12 1, CaC12 5 and HEPES 10 (pH = 7.4, Osmolarity ~300 mOsm). The extracellular solution was used as the wash, reference and compound delivery solution. The internal solution contained the following (in mM): NaCl 70, KF 70, KC1 10, EGTA 5, HEPES 5 and Escin 0.01 (pH = 7.2, Osmolarity ~295 mOsm). Escin is made at a 5 mM stock in water, aliquoted, and stored at -20° C. The compound plate was created at 2x concentrated in the extracellular solution. The compound was diluted to 1:2 when added to the recording well. The amount of DMSO in the extracellular solution was held constant at the level used for the highest tested concentration. A holding potential of -80 mV with a 100 ms step to 0 mV was used. Mean current was measured during the step to 0 mV. […] The average mean current from 3 sweeps was calculated and the % inhibition of each compound was calculated. The % Inhibition as a function of the compound concentration was fit with a Hill equation to derive IC50, slope, min and max parameters. If KCNT1 inhibition was less than 50% at the highest tested concentration or if an IC50 could not be calculated, then a percent inhibition was reported in place of the IC50.
KCNT1 (KNa1.1, Slack), sequence (Q5JUK3 whole entry): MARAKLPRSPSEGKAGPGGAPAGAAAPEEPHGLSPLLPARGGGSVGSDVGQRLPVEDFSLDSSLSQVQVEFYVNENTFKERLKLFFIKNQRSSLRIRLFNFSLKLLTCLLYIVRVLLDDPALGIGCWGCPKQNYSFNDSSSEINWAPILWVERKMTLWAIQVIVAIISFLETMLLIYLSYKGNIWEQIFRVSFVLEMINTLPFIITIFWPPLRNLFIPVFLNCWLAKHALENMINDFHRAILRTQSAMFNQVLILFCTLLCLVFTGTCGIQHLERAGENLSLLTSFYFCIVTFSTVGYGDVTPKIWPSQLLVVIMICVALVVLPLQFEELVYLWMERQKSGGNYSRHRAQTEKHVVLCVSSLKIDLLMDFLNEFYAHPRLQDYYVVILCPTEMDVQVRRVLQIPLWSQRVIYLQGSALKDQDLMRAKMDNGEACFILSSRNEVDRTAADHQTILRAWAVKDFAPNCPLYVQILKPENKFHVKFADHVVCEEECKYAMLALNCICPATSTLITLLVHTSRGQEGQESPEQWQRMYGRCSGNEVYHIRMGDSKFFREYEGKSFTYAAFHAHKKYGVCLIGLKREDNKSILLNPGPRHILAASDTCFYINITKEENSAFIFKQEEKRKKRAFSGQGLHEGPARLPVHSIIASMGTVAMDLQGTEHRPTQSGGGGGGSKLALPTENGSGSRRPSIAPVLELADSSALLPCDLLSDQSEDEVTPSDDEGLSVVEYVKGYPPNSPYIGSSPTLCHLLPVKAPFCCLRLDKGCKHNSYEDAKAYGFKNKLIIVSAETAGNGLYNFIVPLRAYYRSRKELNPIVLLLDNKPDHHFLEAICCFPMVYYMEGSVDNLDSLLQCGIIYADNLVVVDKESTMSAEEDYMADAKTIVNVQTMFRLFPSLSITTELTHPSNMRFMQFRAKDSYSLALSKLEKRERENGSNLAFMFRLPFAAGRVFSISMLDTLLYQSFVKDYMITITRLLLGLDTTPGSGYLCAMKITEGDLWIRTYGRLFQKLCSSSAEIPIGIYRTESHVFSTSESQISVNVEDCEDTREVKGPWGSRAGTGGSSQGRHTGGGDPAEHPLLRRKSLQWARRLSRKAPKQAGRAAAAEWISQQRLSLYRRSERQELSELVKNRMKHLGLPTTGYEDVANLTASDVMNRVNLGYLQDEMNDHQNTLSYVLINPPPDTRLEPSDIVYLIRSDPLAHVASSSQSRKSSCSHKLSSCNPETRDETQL
In this table, “A” indicates IC50 of less than or equal to 1 µM; “B” indicates inhibition of between 1 µM to 20 µM; and “C” indicates inhibition of greater than or equal to 20 µM.
Background: Patch clamp records ionic current or voltage across a cell membrane.
The molecule `Cc1cc(-c2nsc([C@H](C)NC(=O)c3cc(C(F)(F)F)nn3C)n2)ccn1` [Example 40, 2-methyl-N-[(1S)-1-[3-(2-methyl-4-pyridyl)-1,2,4-thiadiazol-5-yl]ethyl]-5-(trifluoromethyl)pyrazole-3-carboxamide] gave an IC50 of 1 to 20 µM.
For `C[C@H](NC(=O)c1cc(C(F)(F)F)nn1C)c1cc(-c2ccnc(C(F)(F)F)c2)no1` (single isomer, unassigned) [Example 2] the value was at most 1 µM; for `C[C@H](NC(=O)c1ccccc1)c1cc(-c2ccnc(C3CC3)c2)no1` (single isomer, unassigned) [Example 14], at most 1 µM.
Turning to `CC(C)c1cc(C(=O)N[C@H](C)c2cc(-c3ccnc(C(F)(F)F)c3)no2)n(C)n1` (single isomer, unassigned) [Example 24], the IC50 lay within 1 to 20 µM.
In the case of `C[C@@H](NC(=O)c1cccc(Cl)c1)c1nc(-c2ccnc(C3CC3)c2)ns1` (single isomer, unassigned) [Example 7] it was at most 1 µM; in that of `C[C@@H](NC(=O)c1ccccc1)c1cc(-c2ccnc(C3CC3)c2)no1` (single isomer, unassigned) [Example 15], 1 to 20 µM.
For `C[C@@H](NC(=O)c1cccc(Cl)c1)c1cc(-c2ccnc(C3CC3)c2)no1` (single isomer, unassigned) [Example 19] the value was at most 1 µM; for `C[C@@H](NC(=O)N1CCCc2ccccc21)c1cc(-c2ccnc(C(F)(F)F)c2)no1` (single isomer, unassigned) [Example 35], at most 1 µM; for `C[C@H](NC(=O)C1CCCCC1)c1cc(-c2ccnc(C(F)(F)F)c2)no1` (single isomer, unassigned) [Example 27], 1 to 20 µM.
`COCc1cc(-c2nsc([C@@H](C)NC(=O)c3cc(C(F)(F)F)nn3C)n2)ccn1` (single isomer, unassigned) [Example 43] yielded an IC50 of 1 to 20 µM.
For `C[C@@H](NC(=O)C1CCCCC1)c1cc(-c2ccnc(C(F)(F)F)c2)no1` (single isomer, unassigned) [Example 26] the value was at least 20 µM; for `C[C@H](NC(=O)c1ccccc1)c1cc(-c2ccnc(C(F)(F)F)c2)no1` (single isomer, unassigned) [Example 23], 1 to 20 µM.
In the case of `C[C@H](NC(=O)c1cc(C(F)(F)F)nn1C)c1nc(-c2ccnc(C3CC3)c2)ns1` (single isomer, unassigned) [Example 12] it was at most 1 µM; in that of `COc1cc(-c2nsc([C@@H](C)NC(=O)c3cc(C(F)(F)F)nn3C)n2)ccn1` [Example 45, 2-methyl-N-[(1R)-1-[3-(2-methoxy-4-pyridyl)-1,2,4-thiadiazol-5-yl]ethyl]-5-(trifluoromethyl)pyrazole-3-carboxamide], at most 1 µM.
In the case of `C[C@H](NC(=O)c1cc(C(F)(F)F)nn1C)c1nc(-c2ccnc(C(F)(F)F)c2)ns1` (single isomer, unassigned) [Example 11] it was at most 1 µM; in that of `COCc1cc(-c2nsc([C@H](C)NC(=O)c3cc(C(F)(F)F)nn3C)n2)ccn1` (single isomer, unassigned) [Example 42], 1 to 20 µM.
On to `C[C@@H](NC(=O)Cc1ccccc1)c1cc(-c2ccnc(C(F)(F)F)c2)no1` (single isomer, unassigned) [Example 28], for which the IC50 is at least 20 µM.
In the case of `C[C@@H](NC(=O)N1CCCCC1)c1cc(-c2ccnc(C(F)(F)F)c2)no1` (single isomer, unassigned) [Example 9] it was 1 to 20 µM.
For `COc1cc(-c2nsc([C@H](C)NC(=O)c3cc(C(F)(F)F)nn3C)n2)ccn1` [Example 44, 2-methyl-N-[(1S)-1-[3-(2-methoxy-4-pyridyl)-1,2,4-thiadiazol-5-yl]ethyl]-5-(trifluoromethyl)pyrazole-3-carboxamide] the value was at most 1 µM; for `C[C@@H](NC(=O)c1cccc(C(F)(F)F)c1)c1cc(-c2ccnc(C(F)(F)F)c2)no1` (single isomer, unassigned) [Example 33], 1 to 20 µM; for `C[C@@H](NC(=O)c1cc(C(F)(F)F)nn1C)c1nc(-c2ccnc(C(F)(F)F)c2)ns1` (single isomer, unassigned) [Example 10], at most 1 µM.
For `C[C@H](NC(=O)c1cccc(C(F)(F)F)c1)c1cc(-c2ccnc(C(F)(F)F)c2)no1` (single isomer, unassigned) [Example 32] the value was at most 1 µM; for `C[C@H](NC(=O)c1cccc(Cl)c1)c1cc(-c2ccnc(C3CC3)c2)no1` (single isomer, unassigned) [Example 18], 1 to 20 µM.
`C[C@H](NC(=O)c1cccc(Cl)c1)c1cc(-c2ccnc(C(F)(F)F)c2)no1` (single isomer, unassigned) [Example 21]: the IC50 is at most 1 µM.
For `C[C@@H](NC(=O)c1ccnn1C1CCC1)c1cc(-c2ccnc(C(F)(F)F)c2)no1` (single isomer, unassigned) [Example 36] the value was at most 1 µM.
In the case of `Cc1cc(-c2nsc([C@@H](C)NC(=O)c3cc(C(F)(F)F)nn3C)n2)ccn1` [Example 41, (R)-1-methyl-N-(1-(3-(2-methylpyridin-4-yl)-1,2,4-thiadiazol-5-yl)ethyl)-3-(trifluoromethyl)-1H-pyrazole-5-carboxamide] it was 1 to 20 µM.
For `C[C@@H](NC(=O)c1cc(C(F)(F)F)nn1C)c1nc(-c2ccnc(C3CC3)c2)ns1` (single isomer, unassigned) [Example 13] the value was at most 1 µM; for `C[C@H](NC(=O)N1CCOc2ccccc21)c1cc(-c2ccnc(C(F)(F)F)c2)no1` (single isomer, unassigned) [Example 38], 1 to 20 µM.
With `C[C@@H](NC(=O)c1ccccc1)c1nc(-c2ccnc(C3CC3)c2)ns1` [Example 5, (R)-N-(1-(3-(2-cyclopropylpyridin-4-yl)-1,2,4-thiadiazol-5-yl)ethyl)benzamide], the concentration for half-maximal inhibition (IC50) is at most 1 µM.
`C[C@@H](NC(=O)c1ccccc1)c1cc(-c2ccnc(C(F)(F)F)c2)no1` (single isomer, unassigned) [Example 22] displayed an IC50 of at least 20 µM.
In the case of `C[C@@H](NC(=O)c1cccc(Cl)c1)c1cc(-c2ccnc(C(F)(F)F)c2)no1` (single isomer, unassigned) [Example 20] it was 1 to 20 µM.
For `C[C@H](NC(=O)c1ccccc1)c1nc(-c2ccnc(C3CC3)c2)ns1` [Example 4, (S)-N-(1-(3-(2-cyclopropylpyridin-4-yl)-1,2,4-thiadiazol-5-yl)ethyl)benzamide] the value was at most 1 µM; for `C[C@H](NC(=O)c1cccc(Cl)c1)c1nc(-c2ccnc(C3CC3)c2)ns1` (single isomer, unassigned) [Example 6], at most 1 µM.
For `C[C@H](NC(=O)N1CCCc2ccccc21)c1cc(-c2ccnc(C(F)(F)F)c2)no1` (single isomer, unassigned) [Example 34] the value was 1 to 20 µM; for `C[C@@H](NC(=O)c1cc(C(F)(F)F)nn1C)c1cc(-c2ccnc(C(F)(F)F)c2)no1` (single isomer, unassigned) [Example 3], 1 to 20 µM.
The molecule `C[C@@H](NC(=O)c1cc(C(F)(F)F)nn1C)c1nc(N2CCCCC2)ns1` [Example 47, 2-methyl-N-[(1R)-1-[3-(1-piperidyl)-1,2,4-thiadiazol-5-yl]ethyl]-5-(trifluoromethyl)pyrazole-3-carboxamide] had an IC50 of 1 to 20 µM.

These data come from patent publication US20230285377A1, “KCNT1 INHIBITORS AND METHODS OF USE” (Praxis Precision Medicines, Inc., priority 2020, published 2023).
